# Assay results published in BindingDB's records for PubMed 2385234 (Universit&Eacute, 1990).
# pKi: −log10 of the molar value. Values joined by “and” are separate entries in the source; they are usually repeats but may differ in a detail not shown here. Equal entries are not always repeated.
# What was measured:
# [1] = target: T1, Muscarinic acetylcholine receptor M4 (Rattus norvegicus, UniProt P08485)
# T1 sequence (P08485 whole entry): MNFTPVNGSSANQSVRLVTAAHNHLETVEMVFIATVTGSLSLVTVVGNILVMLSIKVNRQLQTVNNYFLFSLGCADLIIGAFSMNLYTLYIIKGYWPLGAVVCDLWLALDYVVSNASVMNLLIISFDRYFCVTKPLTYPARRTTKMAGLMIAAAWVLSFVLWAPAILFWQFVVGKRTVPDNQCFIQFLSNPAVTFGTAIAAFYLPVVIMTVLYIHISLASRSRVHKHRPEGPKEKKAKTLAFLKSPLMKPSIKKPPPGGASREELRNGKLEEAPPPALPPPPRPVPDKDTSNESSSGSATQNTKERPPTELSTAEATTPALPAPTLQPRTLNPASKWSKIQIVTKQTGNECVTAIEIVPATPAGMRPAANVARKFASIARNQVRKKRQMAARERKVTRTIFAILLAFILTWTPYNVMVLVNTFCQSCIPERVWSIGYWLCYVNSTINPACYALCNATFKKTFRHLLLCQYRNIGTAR
# [2] = target: T2, Muscarinic acetylcholine receptor M4 (Mus musculus, UniProt P32211)
# T2 sequence (P32211 whole entry): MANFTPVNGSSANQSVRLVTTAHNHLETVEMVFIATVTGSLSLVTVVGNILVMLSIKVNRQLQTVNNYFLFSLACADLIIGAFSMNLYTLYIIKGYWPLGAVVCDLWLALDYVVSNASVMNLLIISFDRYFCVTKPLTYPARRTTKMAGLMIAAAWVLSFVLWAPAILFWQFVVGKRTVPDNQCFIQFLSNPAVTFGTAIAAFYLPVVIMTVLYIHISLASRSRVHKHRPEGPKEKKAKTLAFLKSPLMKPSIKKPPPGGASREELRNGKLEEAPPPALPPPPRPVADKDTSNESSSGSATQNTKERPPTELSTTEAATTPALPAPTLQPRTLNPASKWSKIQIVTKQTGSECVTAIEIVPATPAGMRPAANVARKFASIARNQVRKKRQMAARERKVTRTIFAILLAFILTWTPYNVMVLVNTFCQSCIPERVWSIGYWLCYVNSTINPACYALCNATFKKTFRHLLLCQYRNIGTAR
# [3] = target: Muscarinic acetylcholine receptor M3 (Rattus norvegicus, UniProt P08483)
# [4] = target: T3, Muscarinic acetylcholine receptor M2 (Rattus norvegicus, UniProt P10980)
# T3 sequence (P10980 whole entry): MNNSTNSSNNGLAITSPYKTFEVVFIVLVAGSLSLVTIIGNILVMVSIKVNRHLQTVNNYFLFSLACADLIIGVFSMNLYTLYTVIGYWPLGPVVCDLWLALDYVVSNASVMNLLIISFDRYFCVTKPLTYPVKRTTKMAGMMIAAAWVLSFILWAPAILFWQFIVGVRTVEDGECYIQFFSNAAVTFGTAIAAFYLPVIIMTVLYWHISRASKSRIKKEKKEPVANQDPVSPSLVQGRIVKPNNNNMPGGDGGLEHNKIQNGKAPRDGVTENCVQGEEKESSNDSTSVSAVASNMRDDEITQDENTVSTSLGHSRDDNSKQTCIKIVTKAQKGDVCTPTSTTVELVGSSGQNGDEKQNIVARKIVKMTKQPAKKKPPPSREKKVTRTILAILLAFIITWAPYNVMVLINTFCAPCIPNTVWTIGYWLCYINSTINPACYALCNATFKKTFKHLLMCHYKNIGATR
# Chain of Muscarinic acetylcholine receptor M3 (P08483 whole entry): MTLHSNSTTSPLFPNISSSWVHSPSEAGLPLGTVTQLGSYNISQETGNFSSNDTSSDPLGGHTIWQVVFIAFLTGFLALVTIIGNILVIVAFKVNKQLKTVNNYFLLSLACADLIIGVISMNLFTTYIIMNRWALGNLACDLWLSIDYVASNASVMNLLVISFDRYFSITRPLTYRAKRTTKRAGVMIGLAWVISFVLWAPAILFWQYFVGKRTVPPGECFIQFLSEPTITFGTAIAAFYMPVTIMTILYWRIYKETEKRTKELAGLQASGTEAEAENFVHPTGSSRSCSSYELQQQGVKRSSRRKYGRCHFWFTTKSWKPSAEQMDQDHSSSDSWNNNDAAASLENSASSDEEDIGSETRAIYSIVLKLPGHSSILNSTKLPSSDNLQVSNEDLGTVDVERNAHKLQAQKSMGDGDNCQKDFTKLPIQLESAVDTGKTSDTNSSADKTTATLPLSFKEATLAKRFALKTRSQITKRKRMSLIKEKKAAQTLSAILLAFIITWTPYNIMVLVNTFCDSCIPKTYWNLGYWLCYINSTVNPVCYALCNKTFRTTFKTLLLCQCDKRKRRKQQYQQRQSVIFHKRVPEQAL
Compound,pKi [1],pKi [2],pKi [3],pKi [4]
C[N+]1(C)CCC(OC(=O)C(c2ccccc2)c2ccccc2)CC1,8.28 and 8.25,8.25,–,–
"CN1CCN(CC(=O)N2c3ccccc3C(=O)Nc3cccnc32)CC1 [11-[(4-methylpiperazin-1-yl)acetyl]-5,11-dihydro-6H-pyrido[2,3-b][1,4]benzodiazepin-6-one]",–,6.40,–,–
"CCN(CC)CC1CCCCN1CC(=O)N1c2ccccc2C(=O)Nc2cccnc21 (configuration not stated) [(AF-DX 116) 11-[2-(2-Diethylaminomethyl-piperidin-1-yl)-acetyl]-5,11-dihydro-benzo[e]pyrido[3,2-b][1,4]diazepin-6-one]",5.77 and 5.82,5.80,5.32,7.13
O[Si](CCCN1CCCCC1)(c1ccccc1)C1CCCCC1 (configuration not stated) [HHSiD],7.03 and 6.96,7.00,7.30,–
C[C@H]1OC(=O)C2C[C@H]3CCCC[C@@H]3[C@@H](/C=C/[C@@H]3CCC[C@H](C)N3C)C21 (some centres not stated) [HIMBACINE],7.34 and 7.30,7.22,6.05,7.82
COc1ccccc1CNCCCCCCNCCCCCCCCNCCCCCCNCc1ccccc1OC [METHOCTRAMINE],6.89 and 7.00,6.80,5.52,–
